Data on 4 compounds can be found in patent US20070154579A1, “Morinda Citrifolia Based Formulation And Methods For Weight Management” (priority 2005, published 2007).

Entries after “also recorded” stand apart in the source; their conditions may differ. Like-named read-outs stand apart in the source and are kept apart here. Square brackets hold non-standard residues; d marks the D form. Peptide text beside a SMILES is read from it. Nle = CCCC[C@H](N)C(=O)O; βAla = NCCC(=O)O

The target in experiment [1] is T1, Bombesin BB3 (Homo sapiens, UniProt P32247).
T1 construct: expressed in transfected cells; host or cells: Balb 3T3 cells
T1 sequence (P32247 1-399): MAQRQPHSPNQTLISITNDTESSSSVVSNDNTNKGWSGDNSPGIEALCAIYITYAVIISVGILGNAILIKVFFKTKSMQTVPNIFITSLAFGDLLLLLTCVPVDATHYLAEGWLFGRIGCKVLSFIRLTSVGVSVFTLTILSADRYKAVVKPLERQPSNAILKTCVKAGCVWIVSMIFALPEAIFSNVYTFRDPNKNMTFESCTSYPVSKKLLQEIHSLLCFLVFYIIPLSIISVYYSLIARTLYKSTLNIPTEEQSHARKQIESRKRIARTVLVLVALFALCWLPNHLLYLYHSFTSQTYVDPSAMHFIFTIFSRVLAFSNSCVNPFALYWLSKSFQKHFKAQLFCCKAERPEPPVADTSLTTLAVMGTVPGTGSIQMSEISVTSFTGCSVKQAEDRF
Description: Bombesin BB3 radioligand binding. Particulars: batch 147476; read-out: Concurrent IC50 (reference compound). As for the experimental part:
The effects of juice from Morinda Citrifolia (noni) on metabolic rate were analyzed by analyzing the bombesin response. “TNJ” refers to Morinda citrifolia juice processed according to this invention and commericially available as […] NONI® juice, “Sample #100” is a Noni concentrate and “TNCMP1” refers to Morinda citrifolia evaporative concentrate. The percentage of concentration represents the concentration strength of the particular concentrate tested; that is, the strength of concentration relative to the Morinda citrifolia fruit juice from which the concentrate was obtained.
The following materials and methods were utilized in the Bombesin research.

Experiment [2] has as its target T1, Bombesin BB3. Particulars: historical value, cited from earlier work.
Experiment [3] deals with Adrenergic β3 (Homo sapiens, UniProt P13945). To be noted: ephedrine, from research studies; cited from earlier work.
Chain of Adrenergic β3 (P13945 whole entry): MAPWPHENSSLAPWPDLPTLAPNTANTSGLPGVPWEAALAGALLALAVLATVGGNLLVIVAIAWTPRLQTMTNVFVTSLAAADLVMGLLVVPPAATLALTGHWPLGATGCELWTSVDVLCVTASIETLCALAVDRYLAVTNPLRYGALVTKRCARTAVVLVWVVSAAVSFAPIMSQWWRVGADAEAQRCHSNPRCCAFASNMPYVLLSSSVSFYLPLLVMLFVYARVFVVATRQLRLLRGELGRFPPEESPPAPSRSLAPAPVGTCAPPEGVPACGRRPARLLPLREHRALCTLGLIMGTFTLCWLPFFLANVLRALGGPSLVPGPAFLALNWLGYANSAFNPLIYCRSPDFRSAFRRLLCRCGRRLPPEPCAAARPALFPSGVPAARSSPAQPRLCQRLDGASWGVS
The target in experiment [4] is Adrenergic β2 (Homo sapiens, UniProt P07550). Particulars: ephedrine, from research studies; cited from earlier work.
Chain of Adrenergic β2 (P07550 whole entry): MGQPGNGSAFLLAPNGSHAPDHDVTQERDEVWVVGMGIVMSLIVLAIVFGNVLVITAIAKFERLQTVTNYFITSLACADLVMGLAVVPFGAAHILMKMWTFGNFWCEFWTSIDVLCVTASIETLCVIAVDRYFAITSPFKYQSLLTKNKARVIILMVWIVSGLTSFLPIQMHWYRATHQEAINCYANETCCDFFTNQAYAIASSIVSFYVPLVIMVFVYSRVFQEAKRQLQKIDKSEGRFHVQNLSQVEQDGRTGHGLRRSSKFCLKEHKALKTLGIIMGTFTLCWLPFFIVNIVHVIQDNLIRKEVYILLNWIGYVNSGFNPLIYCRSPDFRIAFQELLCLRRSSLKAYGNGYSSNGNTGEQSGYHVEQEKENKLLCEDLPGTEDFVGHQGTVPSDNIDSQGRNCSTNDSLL
In experiment [5] the target is Adrenergic β1 (Homo sapiens, UniProt P08588). Particulars: ephedrine, from research studies; cited from earlier work.
Chain of Adrenergic β1 (P08588 whole entry): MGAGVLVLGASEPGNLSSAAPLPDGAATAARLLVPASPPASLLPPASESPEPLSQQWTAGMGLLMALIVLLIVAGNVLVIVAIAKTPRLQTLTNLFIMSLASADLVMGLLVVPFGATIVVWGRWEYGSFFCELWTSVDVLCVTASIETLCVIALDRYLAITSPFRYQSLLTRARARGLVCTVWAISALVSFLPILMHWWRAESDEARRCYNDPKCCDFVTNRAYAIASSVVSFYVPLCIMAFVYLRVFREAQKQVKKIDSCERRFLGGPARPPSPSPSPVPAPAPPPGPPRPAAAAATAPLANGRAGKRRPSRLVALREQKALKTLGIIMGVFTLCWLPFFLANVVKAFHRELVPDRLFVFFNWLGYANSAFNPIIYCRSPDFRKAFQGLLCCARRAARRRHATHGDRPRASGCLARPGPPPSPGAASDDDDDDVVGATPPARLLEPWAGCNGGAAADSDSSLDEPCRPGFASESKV
The target in experiment [6] is Bombesin BB1 (Homo sapiens, UniProt P28336). Particulars: historical value, Hill coefficient; cited from earlier work.
Chain of Bombesin BB1 (P28336 whole entry): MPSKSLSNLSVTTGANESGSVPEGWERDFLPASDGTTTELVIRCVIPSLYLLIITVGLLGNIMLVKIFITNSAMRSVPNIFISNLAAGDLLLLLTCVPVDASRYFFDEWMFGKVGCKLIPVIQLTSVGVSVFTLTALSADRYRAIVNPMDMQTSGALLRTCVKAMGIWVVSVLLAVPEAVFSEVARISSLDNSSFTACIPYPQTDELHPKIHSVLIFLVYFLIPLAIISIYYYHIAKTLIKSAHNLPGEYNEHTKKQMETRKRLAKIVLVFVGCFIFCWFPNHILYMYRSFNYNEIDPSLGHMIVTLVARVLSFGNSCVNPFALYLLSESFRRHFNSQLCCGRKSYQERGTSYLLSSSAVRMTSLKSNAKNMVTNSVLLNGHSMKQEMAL
Experiment [7] deals with Somatostatin sst5 (Homo sapiens, UniProt P35346). To be noted: historical value, Hill coefficient; cited from earlier work.
Chain of Somatostatin sst5 (P35346 whole entry): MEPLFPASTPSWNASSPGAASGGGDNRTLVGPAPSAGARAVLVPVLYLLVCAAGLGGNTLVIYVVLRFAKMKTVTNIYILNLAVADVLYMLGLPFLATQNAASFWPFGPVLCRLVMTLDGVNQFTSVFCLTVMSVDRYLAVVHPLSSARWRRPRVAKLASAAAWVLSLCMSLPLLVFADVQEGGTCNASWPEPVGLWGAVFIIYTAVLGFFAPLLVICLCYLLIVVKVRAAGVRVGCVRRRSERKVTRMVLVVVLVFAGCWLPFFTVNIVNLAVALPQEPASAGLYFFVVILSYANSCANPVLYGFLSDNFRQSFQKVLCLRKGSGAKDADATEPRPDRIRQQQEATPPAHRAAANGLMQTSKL

One may read the IC50 as the concentration at which inhibition is half-maximal. One may read the Ki as the equilibrium dissociation constant of an inhibitor or competing ligand from its target. As for `CCCC[C@H](NC(=O)[C@H](Cc1ccccc1)NC(=O)[C@H](Cc1c[nH]cn1)NC(=O)CCNC(=O)[C@@H](NC(=O)[C@H](C)NC(=O)[C@H](Cc1c[nH]c2ccccc12)NC(=O)[C@H](CCC(N)=O)NC(=O)[C@H](N)Cc1ccccc1)C(C)C)C(N)=O` [(D-Phe^6, β-Ala^11, Phe^13, Nle^14)-BN (6-14)] (H-[dF]QWAV[βAla]HF[Nle]-NH2; N-terminus and C-terminus assumed), the IC50 is 5.99 nM in experiment [1] and 6.1 nM in experiment [2] (read-out: Historical IC50 (reference compound)). Further, the “Historical nH (reference compound)” value in experiment [2] (Hill coefficient) is recorded as 0.9. Besides, the Ki in experiment [2] (read-out: Historical Ki (reference compound)) was 4.1 nM.

Take `CN[C@@H](C)[C@H](O)c1ccccc1` [ephedrine]: in experiment [3], the “adrenergic β-3 response (agonist/antagonist)” value was “activating; also recorded: agonist”. The “adrenergic β-2 response (agonist/antagonist)” value in experiment [4] is recorded as “inhibits; also recorded: antagonist”. In addition, in experiment [5], the “adrenergic β-1 response (agonist/antagonist)” value is “inhibits; also recorded: antagonist”.

As to Neuromedin B, the “Historical nH (reference compound)” value in experiment [6] is 0.9.

With Somatostatin-14, in experiment [7], the “Historical nH (reference compound; no head)” value is on record as 0.8.
